Data reported in patent publication US8192962B2, “Processes for detecting toxic substances” (Daikin Industries, Ltd., priority 2001, dated 2012).

Test system: Genes belonging to other category
Assay: DNA chip mRNA expression in yeast, genes belonging to other category (Table 9)
Type: cell-based, Saccharomyces cerevisiae S288C
How it was run: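 In this screen, yeast in logarithmic growth are challenged for two hours with a toxic substance at a non-lethal inhibitory concentration. Their mRNA, converted to Cy3- or Cy5-labeled cDNA, hybridizes at 65° C. to a chip spanning every yeast gene, and expression is expressed as a ratio to untreated cells.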

SMILES: Oc1cc(Cl)c(Cl)cc1Cl [(6), 2,4,5-trichlorophenol]
- The level of expressed mRNA in the presence of chemical substance/The level of expressed mRNA in the absence of chemical substance (yeast gene YJL210W): 0.6
- The level of expressed mRNA in the presence of chemical substance/The level of expressed mRNA in the absence of chemical substance (yeast gene YJR004C): 1.2
- The level of expressed mRNA in the presence of chemical substance/The level of expressed mRNA in the absence of chemical substance (yeast gene YJR050W): 1.4
- The level of expressed mRNA in the presence of chemical substance/The level of expressed mRNA in the absence of chemical substance (yeast gene YJR086W): 1.9
- The level of expressed mRNA in the presence of chemical substance/The level of expressed mRNA in the absence of chemical substance (yeast gene YJR091C): 0.8
- The level of expressed mRNA in the presence of chemical substance/The level of expressed mRNA in the absence of chemical substance (yeast gene YJR110W): 0.9
- The level of expressed mRNA in the presence of chemical substance/The level of expressed mRNA in the absence of chemical substance (yeast gene YJR117W): 1.3
- The level of expressed mRNA in the presence of chemical substance/The level of expressed mRNA in the absence of chemical substance (yeast gene YJR119C): 1.4
- The level of expressed mRNA in the presence of chemical substance/The level of expressed mRNA in the absence of chemical substance (yeast gene YJR145C): 0.4
- The level of expressed mRNA in the presence of chemical substance/The level of expressed mRNA in the absence of chemical substance (yeast gene YKL008C): 3.8
- The level of expressed mRNA in the presence of chemical substance/The level of expressed mRNA in the absence of chemical substance (yeast gene YKL013C): 1.9
- The level of expressed mRNA in the presence of chemical substance/The level of expressed mRNA in the absence of chemical substance (yeast gene YKL025C): 0.9
- The level of expressed mRNA in the presence of chemical substance/The level of expressed mRNA in the absence of chemical substance (yeast gene YKL039W): 4.9
- The level of expressed mRNA in the presence of chemical substance/The level of expressed mRNA in the absence of chemical substance (yeast gene YKL041W): 2.2
- The level of expressed mRNA in the presence of chemical substance/The level of expressed mRNA in the absence of chemical substance (yeast gene YKL079W): 0.8
- The level of expressed mRNA in the presence of chemical substance/The level of expressed mRNA in the absence of chemical substance (yeast gene YKL096W): 0.6
- The level of expressed mRNA in the presence of chemical substance/The level of expressed mRNA in the absence of chemical substance (yeast gene YKL139W): 3.5
- The level of expressed mRNA in the presence of chemical substance/The level of expressed mRNA in the absence of chemical substance (yeast gene YKL165C): 0.6
- The level of expressed mRNA in the presence of chemical substance/The level of expressed mRNA in the absence of chemical substance (yeast gene YKL193C): 0.9
- The level of expressed mRNA in the presence of chemical substance/The level of expressed mRNA in the absence of chemical substance (yeast gene YKL196C): 0.9
- The level of expressed mRNA in the presence of chemical substance/The level of expressed mRNA in the absence of chemical substance (yeast gene YKR014C): 2.1
- The level of expressed mRNA in the presence of chemical substance/The level of expressed mRNA in the absence of chemical substance (yeast gene YKR098C): 1.8
- The level of expressed mRNA in the presence of chemical substance/The level of expressed mRNA in the absence of chemical substance (yeast gene YLR120C): 1.9
- The level of expressed mRNA in the presence of chemical substance/The level of expressed mRNA in the absence of chemical substance (yeast gene YLR136C): 1.7
- The level of expressed mRNA in the presence of chemical substance/The level of expressed mRNA in the absence of chemical substance (yeast gene YLR144C): 0.9
- The level of expressed mRNA in the presence of chemical substance/The level of expressed mRNA in the absence of chemical substance (yeast gene YLR178C): 4.2
- The level of expressed mRNA in the presence of chemical substance/The level of expressed mRNA in the absence of chemical substance (yeast gene YLR206W): 0.5
- The level of expressed mRNA in the presence of chemical substance/The level of expressed mRNA in the absence of chemical substance (yeast gene YLR250W): 1.1
- The level of expressed mRNA in the presence of chemical substance/The level of expressed mRNA in the absence of chemical substance (yeast gene YLR266C): 1.0
- The level of expressed mRNA in the presence of chemical substance/The level of expressed mRNA in the absence of chemical substance (yeast gene YLR327C): 5.1
- The level of expressed mRNA in the presence of chemical substance/The level of expressed mRNA in the absence of chemical substance (yeast gene YLR356W): 3.4
- The level of expressed mRNA in the presence of chemical substance/The level of expressed mRNA in the absence of chemical substance (yeast gene YLR360W): 1.4
- The level of expressed mRNA in the presence of chemical substance/The level of expressed mRNA in the absence of chemical substance (yeast gene YLR362W): 0.8
- The level of expressed mRNA in the presence of chemical substance/The level of expressed mRNA in the absence of chemical substance (yeast gene YLR389C): 0.2
- The level of expressed mRNA in the presence of chemical substance/The level of expressed mRNA in the absence of chemical substance (yeast gene YLR391W): 1.5
- The level of expressed mRNA in the presence of chemical substance/The level of expressed mRNA in the absence of chemical substance (yeast gene YLR429W): 0.8
- The level of expressed mRNA in the presence of chemical substance/The level of expressed mRNA in the absence of chemical substance (yeast gene YMR004W): 0.5
- The level of expressed mRNA in the presence of chemical substance/The level of expressed mRNA in the absence of chemical substance (yeast gene YMR094W): 0.5
- The level of expressed mRNA in the presence of chemical substance/The level of expressed mRNA in the absence of chemical substance (yeast gene YMR101C): 0.4
- The level of expressed mRNA in the presence of chemical substance/The level of expressed mRNA in the absence of chemical substance (yeast gene YMR104C): 1.9
- The level of expressed mRNA in the presence of chemical substance/The level of expressed mRNA in the absence of chemical substance (yeast gene YMR219W): 0.8
- The level of expressed mRNA in the presence of chemical substance/The level of expressed mRNA in the absence of chemical substance (yeast gene YMR226C): 2.6
- The level of expressed mRNA in the presence of chemical substance/The level of expressed mRNA in the absence of chemical substance (yeast gene YMR275C): 1.4
- The level of expressed mRNA in the presence of chemical substance/The level of expressed mRNA in the absence of chemical substance (yeast gene YMR276W): 0.8
- The level of expressed mRNA in the presence of chemical substance/The level of expressed mRNA in the absence of chemical substance (yeast gene YMR297W): 1.8
- The level of expressed mRNA in the presence of chemical substance/The level of expressed mRNA in the absence of chemical substance (yeast gene YMR314W): 1.3
- The level of expressed mRNA in the presence of chemical substance/The level of expressed mRNA in the absence of chemical substance (yeast gene YNL006W): 1.0
- The level of expressed mRNA in the presence of chemical substance/The level of expressed mRNA in the absence of chemical substance (yeast gene YNL007C): 0.6
- The level of expressed mRNA in the presence of chemical substance/The level of expressed mRNA in the absence of chemical substance (yeast gene YNL069C): 0.4
- The level of expressed mRNA in the presence of chemical substance/The level of expressed mRNA in the absence of chemical substance (yeast gene YNL093W): 1.6
- The level of expressed mRNA in the presence of chemical substance/The level of expressed mRNA in the absence of chemical substance (yeast gene YNL333W): 1.5
- The level of expressed mRNA in the presence of chemical substance/The level of expressed mRNA in the absence of chemical substance (yeast gene YNR010W): 1.3
- The level of expressed mRNA in the presence of chemical substance/The level of expressed mRNA in the absence of chemical substance (yeast gene YNR069C): 1.7
- The level of expressed mRNA in the presence of chemical substance/The level of expressed mRNA in the absence of chemical substance (yeast gene YOL013C): 1.1
- The level of expressed mRNA in the presence of chemical substance/The level of expressed mRNA in the absence of chemical substance (yeast gene YOL039W): 0.4
- The level of expressed mRNA in the presence of chemical substance/The level of expressed mRNA in the absence of chemical substance (yeast gene YOL120C): 0.3
- The level of expressed mRNA in the presence of chemical substance/The level of expressed mRNA in the absence of chemical substance (yeast gene YOL164W): 1.2
- The level of expressed mRNA in the presence of chemical substance/The level of expressed mRNA in the absence of chemical substance (yeast gene YOR023C): 1.8
- The level of expressed mRNA in the presence of chemical substance/The level of expressed mRNA in the absence of chemical substance (yeast gene YOR036W): 1.7
- The level of expressed mRNA in the presence of chemical substance/The level of expressed mRNA in the absence of chemical substance (yeast gene YOR117W): 1.1
- The level of expressed mRNA in the presence of chemical substance/The level of expressed mRNA in the absence of chemical substance (yeast gene YOR124C): 0.9
- The level of expressed mRNA in the presence of chemical substance/The level of expressed mRNA in the absence of chemical substance (yeast gene YOR132W): 1.6
- The level of expressed mRNA in the presence of chemical substance/The level of expressed mRNA in the absence of chemical substance (yeast gene YOR133W): 0.9
- The level of expressed mRNA in the presence of chemical substance/The level of expressed mRNA in the absence of chemical substance (yeast gene YOR134W): 1.4
- The level of expressed mRNA in the presence of chemical substance/The level of expressed mRNA in the absence of chemical substance (yeast gene YOR157C): 1.2
- The level of expressed mRNA in the presence of chemical substance/The level of expressed mRNA in the absence of chemical substance (yeast gene YOR181W): 0.9
- The level of expressed mRNA in the presence of chemical substance/The level of expressed mRNA in the absence of chemical substance (yeast gene YOR185C): 3.0
- The level of expressed mRNA in the presence of chemical substance/The level of expressed mRNA in the absence of chemical substance (yeast gene YOR198C): 0.9
- The level of expressed mRNA in the presence of chemical substance/The level of expressed mRNA in the absence of chemical substance (yeast gene YOR259C): 0.8
- The level of expressed mRNA in the presence of chemical substance/The level of expressed mRNA in the absence of chemical substance (yeast gene YOR261C): 1.4
- The level of expressed mRNA in the presence of chemical substance/The level of expressed mRNA in the absence of chemical substance (yeast gene YOR288C): 1.0
- The level of expressed mRNA in the presence of chemical substance/The level of expressed mRNA in the absence of chemical substance (yeast gene YOR327C): 1.4
- The level of expressed mRNA in the presence of chemical substance/The level of expressed mRNA in the absence of chemical substance (yeast gene YOR355W): 1.6
- The level of expressed mRNA in the presence of chemical substance/The level of expressed mRNA in the absence of chemical substance (yeast gene YOR362C): 1.4
- The level of expressed mRNA in the presence of chemical substance/The level of expressed mRNA in the absence of chemical substance (yeast gene YOR383C): 6.8
- The level of expressed mRNA in the presence of chemical substance/The level of expressed mRNA in the absence of chemical substance (yeast gene YPL089C): 0.8
- The level of expressed mRNA in the presence of chemical substance/The level of expressed mRNA in the absence of chemical substance (yeast gene YPL109C): 1.2
- The level of expressed mRNA in the presence of chemical substance/The level of expressed mRNA in the absence of chemical substance (yeast gene YPL149W): 0.9
- The level of expressed mRNA in the presence of chemical substance/The level of expressed mRNA in the absence of chemical substance (yeast gene YPL154C): 3.5
- The level of expressed mRNA in the presence of chemical substance/The level of expressed mRNA in the absence of chemical substance (yeast gene YPR028W): 1.4
- The level of expressed mRNA in the presence of chemical substance/The level of expressed mRNA in the absence of chemical substance (yeast gene YPR080W): 1.4
- The level of expressed mRNA in the presence of chemical substance/The level of expressed mRNA in the absence of chemical substance (yeast gene YPR103W): 1.2
- The level of expressed mRNA in the presence of chemical substance/The level of expressed mRNA in the absence of chemical substance (yeast gene YPR108W): 1.5
- The level of expressed mRNA in the presence of chemical substance/The level of expressed mRNA in the absence of chemical substance (yeast gene YPR168W): 0.4
